Experimental findings from patent US8916183B2, “Pesticidal compositions and processes related thereto” (priority 2012, dated 2014) are described below.

Experiment [1] deals with Beet Armyworm (BAW) (Spodoptera exigua). Description: Bioassay on beet armyworm (BAW), 128-well diet tray assay. The conditions noted are these: Spodoptera exigua; beet armyworm, 50 μg/cm^2; read-out: % Mortality BAW 50 μg/cm^2. It is filed as in vivo. The protocol: (§1) Certain molecules disclosed in this document were tested against BAW and CEW using procedures described in the following examples. In the reporting of the results, the “BAW & CEW Rating Table” was used (See Table Section).
Bioassays on BAW (Spodoptera exigua)
Bioassays on BAW were conducted using a 128-well diet tray assay. […] Trays were covered with a clear self-adhesive cover and held at 25° C., 14:10 light-dark for five to seven days. Percent mortality was recorded for the larvae in each well; activity in the eight wells was then averaged. The results are indicated in the table entitled “Table 5: Biological Results” (See Table Section).

In experiment [2] the test system is Corn Earworm (CEW) (Helicoverpa zea). Description: Bioassay on corn earworm (CEW), 128-well diet tray assay. It is filed as in vivo. The conditions noted are these: Helicoverpa zea; corn earworm, 50 μg/cm^2; read-out: % Mortality CEW 50 μg/cm^2. The protocol: as §1
Bioassays on CEW (Helicoverpa zea)
Bioassays on CEW were conducted using a 128-well diet tray assay. […] Trays were covered with a clear self-adhesive cover and held at 25° C., 14:10 light-dark for five to seven days. Percent mortality was recorded for the larvae in each well; activity in the eight wells was then averaged. The results are indicated in the table entitled “Table 5: Biological Results” (See Table Section).

For `Fc1cccc(F)c1N1CCS/C1=N\N=C\c1ccc(-c2ncn(-c3ccc(OC(F)(F)F)cc3)n2)cc1` [Compound 148C], the mortality at 50 µg/cm2 in experiment [1] and in experiment [2] was 50 to 100% each time.
In the case of `FC(F)Oc1ccccc1N1CCS/C1=N\N=C\c1ccc(-c2ncn(-c3ccc(OC(F)(F)F)cc3)n2)cc1` [Compound 152C], the mortality at 50 µg/cm2 in experiment [1] and in experiment [2] was 50 to 100% each time.
`FC(F)(F)Oc1ccc(-n2cnc(-c3ccc(/C=N/N=C4\SCCN4c4ccccc4OC(F)(F)F)cc3)n2)cc1` [Compound 153C]: the mortality at 50 µg/cm2 in experiment [1] is 0%; in experiment [2], 50 to 100%.
As for `CC1CS/C(=N\N=C\c2ccc(-c3ncn(-c4ccc(OC(F)(F)F)cc4)n3)cc2)N1c1c(F)cccc1F` (centres unmarked) [Compound 159C], the mortality at 50 µg/cm2 in experiment [1] and in experiment [2] was 50 to 100% each time.
Regarding `CC1CS/C(=N\N=C\c2ccc(-c3ncn(-c4ccc(OC(F)(F)F)cc4)n3)cc2)N1c1c(Cl)cccc1C(F)(F)F` (centres unmarked) [Compound 160C], the mortality at 50 µg/cm2 in experiment [1] and in experiment [2] was 50 to 100% throughout.
In the case of `Cc1cc(C)c(N2/C(=N/N=C/c3ccc(-c4ncn(-c5ccc(OC(F)(F)F)cc5)n4)cc3)SCC2C)c(C)c1` (centres unmarked) [Compound 161C], the mortality at 50 µg/cm2 in experiment [1] and in experiment [2] was 50 to 100% throughout.
For the compound `COc1ccc(N2/C(=N/N=C/c3ccc(-c4ncn(-c5ccc(OC(F)(F)F)cc5)n4)cc3)SCC2C)c(C)c1` (centres unmarked) [Compound 162C], the mortality at 50 µg/cm2 in experiment [1] and in experiment [2] was 50 to 100% throughout.
On to `CCC(C)c1ccccc1N1/C(=N/N=C/c2ccc(-c3ncn(-c4ccc(OC(F)(F)F)cc4)n3)cc2)SCC1C` (centres unmarked) [Compound 163C], for which the mortality at 50 µg/cm2 in experiment [1] and in experiment [2] was 50 to 100% throughout.
For the compound `CC1CS/C(=N\N=C\c2ccc(-c3ncn(-c4ccc(OC(F)(F)F)cc4)n3)cc2)N1c1ccccc1OC(F)F` (centres unmarked) [Compound 164C], the mortality at 50 µg/cm2 in experiment [1] and in experiment [2] was 50 to 100% each time.
With `CC1CS/C(=N\N=C\c2ccc(-c3ncn(-c4ccc(OC(F)(F)F)cc4)n3)cc2)N1c1ccccc1C(C)(C)C` (centres unmarked) [Compound 165C], the mortality at 50 µg/cm2 in experiment [1] and in experiment [2] was 50 to 100% each time.
On to `CCC1CS/C(=N\N=C\c2ccc(-c3ncn(-c4ccc(OC(F)(F)F)cc4)n3)cc2)N1c1ccccc1C` (centres unmarked) [Compound 166C], for which the mortality at 50 µg/cm2 in experiment [1] and in experiment [2] was 50 to 100% in each case.
Take `CCC1CS/C(=N\N=C\c2ccc(-c3ncn(-c4ccc(OC(F)(F)F)cc4)n3)cc2)N1c1c(C)cccc1Cl` (centres unmarked) [Compound 167C]: the mortality at 50 µg/cm2 in experiment [1] and in experiment [2] was 50 to 100% in each case.
On to `Cc1cs/c(=N\N=C\c2ccc(-c3ncn(-c4ccc(OC(F)(F)F)cc4)n3)cc2)n1-c1c(Cl)cccc1C(F)(F)F` [Compound 169C], for which the mortality at 50 µg/cm2 in experiment [1] and in experiment [2] was 50 to 100% each time.
As to `Cc1cs/c(=N\N=C\c2ccc(-c3ncn(-c4ccc(OC(F)(F)F)cc4)n3)cc2)n1-c1ccccc1OC(F)(F)F` [Compound 170C], the mortality at 50 µg/cm2 in experiment [1] and in experiment [2] was 50 to 100% throughout.
Turning to `Cc1cs/c(=N\N=C\c2ccc(-c3ncn(-c4ccc(OC(F)(F)F)cc4)n3)cc2)n1-c1c(F)cccc1F` [Compound 171C], the mortality at 50 µg/cm2 in experiment [1] and in experiment [2] was 50 to 100% throughout.
In the case of `Cc1cs/c(=N\N=C\c2ccc(-c3ncn(-c4ccc(OC(F)(F)F)cc4)n3)cc2)n1-c1ccccc1C(C)C` [Compound 176C], the mortality at 50 µg/cm2 in experiment [1] and in experiment [2] was 50 to 100% throughout.
Take `FC(F)(F)Oc1ccc(-n2cnc(-c3ccc(/C=N/N=C4\SCCCN4c4ccccc4OC(F)(F)F)cc3)n2)cc1` [Compound 199C]: the mortality at 50 µg/cm2 in experiment [1] and in experiment [2] was 50 to 100% each time.
For the compound `CCOC(=O)c1ccc(N2CCCS/C2=N\N=C\c2ccc(-c3ncn(-c4ccc(OC(F)(F)F)cc4)n3)cc2)cc1` [Compound 207C], the mortality at 50 µg/cm2 in experiment [1] and in experiment [2] was 0% each time.
Regarding `CC(C)(C)c1ccccc1N1CCCS/C1=N\N=C\c1ccc(-c2ncn(-c3ccc(OC(F)(F)F)cc3)n2)cc1` [Compound 210C], the mortality at 50 µg/cm2 in experiment [1] and in experiment [2] was 50 to 100% each time.
As to `CC1CS/C(=N\N=C\c2ccc(-c3ncn(-c4ccc(OC(F)(F)F)cc4)n3)cc2)N(c2ccccc2OC(F)(F)F)C1` (centres unmarked) [Compound 214C], the mortality at 50 µg/cm2 in experiment [1] and in experiment [2] was 50 to 100% throughout.
Consider `CC1CS/C(=N\N=C\c2ccc(-c3ncn(-c4ccc(OC(F)(F)F)cc4)n3)cc2)N(c2c(Cl)cccc2C(F)(F)F)C1` (centres unmarked) [Compound 215C], for which the mortality at 50 µg/cm2 in experiment [1] and in experiment [2] was 50 to 100% each time.
On to `CC1CCS/C(=N\N=C\c2ccc(-c3ncn(-c4ccc(OC(F)(F)F)cc4)n3)cc2)N1c1ccccc1OC(F)(F)F` (centres unmarked) [Compound 216C], for which the mortality at 50 µg/cm2 in experiment [1] and in experiment [2] was 50 to 100% throughout.
With `CC1CCS/C(=N\N=C\c2ccc(-c3ncn(-c4ccc(OC(F)(F)F)cc4)n3)cc2)N1c1c(Cl)cccc1C(F)(F)F` (centres unmarked) [Compound 217C], the mortality at 50 µg/cm2 in experiment [1] and in experiment [2] was 50 to 100% throughout.
Take `Cc1cc(C)c(N2/C(=N/N=C/c3ccc(-c4ncn(-c5ccc(OC(F)(F)F)cc5)n4)cc3)SCCC2C)c(C)c1` (centres unmarked) [Compound 218C]: the mortality at 50 µg/cm2 in experiment [1] and in experiment [2] was 50 to 100% each time.
Regarding `COc1ccc(N2/C(=N/N=C/c3ccc(-c4ncn(-c5ccc(OC(F)(F)F)cc5)n4)cc3)SCCC2C)c(C)c1` (centres unmarked) [Compound 219C], the mortality at 50 µg/cm2 in experiment [1] and in experiment [2] was 50 to 100% in each case.
`CCC(C)c1ccccc1N1/C(=N/N=C/c2ccc(-c3ncn(-c4ccc(OC(F)(F)F)cc4)n3)cc2)SCCC1C` (centres unmarked) [Compound 220C]: the mortality at 50 µg/cm2 in experiment [1] and in experiment [2] was 50 to 100% throughout.
As for `CC1CCS/C(=N\N=C\c2ccc(-c3ncn(-c4ccc(OC(F)(F)F)cc4)n3)cc2)N1c1ccccc1OC(F)F` (centres unmarked) [Compound 221C], the mortality at 50 µg/cm2 in experiment [1] and in experiment [2] was 50 to 100% in each case.
With `CC1CCS/C(=N\N=C\c2ccc(-c3ncn(-c4ccc(OC(F)(F)F)cc4)n3)cc2)N1c1ccccc1C(C)(C)C` (centres unmarked) [Compound 222C], the mortality at 50 µg/cm2 in experiment [1] and in experiment [2] was 50 to 100% each time.
Turning to `Cc1cccc(C)c1N1C(=O)CCS/C1=N\N=C\c1ccc(-c2ncn(-c3ccc(OC(F)(F)F)cc3)n2)cc1` [Compound 223C], the mortality at 50 µg/cm2 in experiment [1] and in experiment [2] was 50 to 100% each time.
Consider `CCc1cccc(C)c1N1C(=O)CCS/C1=N\N=C\c1ccc(-c2ncn(-c3ccc(OC(F)(F)F)cc3)n2)cc1` [Compound 225C], for which the mortality at 50 µg/cm2 in experiment [1] and in experiment [2] was 50 to 100% in each case.
In the case of `O=C1CCS/C(=N\N=C\c2ccc(-c3ncn(-c4ccc(OC(F)(F)F)cc4)n3)cc2)N1c1c(F)cccc1F` [Compound 226C], the mortality at 50 µg/cm2 in experiment [1] and in experiment [2] was 50 to 100% each time.
With `Cc1cccc(Cl)c1N1C(=O)CCS/C1=N\N=C\c1ccc(-c2ncn(-c3ccc(OC(F)(F)F)cc3)n2)cc1` [Compound 227C], the mortality at 50 µg/cm2 in experiment [1] and in experiment [2] was 50 to 100% each time.
In the case of `O=C1CCS/C(=N\N=C\c2ccc(-c3ncn(-c4ccc(OC(F)(F)F)cc4)n3)cc2)N1c1c(Cl)cccc1C(F)(F)F` [Compound 228C], the mortality at 50 µg/cm2 in experiment [1] and in experiment [2] was 50 to 100% throughout.
For the compound `CC(F)(F)Oc1ccccc1N1C(=O)CCS/C1=N\N=C\c1ccc(-c2ncn(-c3ccc(OC(F)(F)F)cc3)n2)cc1` [Compound 229C], the mortality at 50 µg/cm2 in experiment [1] and in experiment [2] was 50 to 100% each time.
For `CCC(C)c1ccccc1N1C(=O)CCS/C1=N\N=C\c1ccc(-c2ncn(-c3ccc(OC(F)(F)F)cc3)n2)cc1` (centres unmarked) [Compound 230C], the mortality at 50 µg/cm2 in experiment [1] and in experiment [2] was 50 to 100% each time.
For the compound `COc1ccc(N2C(=O)CCS/C2=N\N=C\c2ccc(-c3ncn(-c4ccc(OC(F)(F)F)cc4)n3)cc2)c(C)c1` [Compound 231C], the mortality at 50 µg/cm2 in experiment [1] and in experiment [2] was 50 to 100% throughout.
As to `CC(C)(C)c1ccccc1N1C(=O)CCS/C1=N\N=C\c1ccc(-c2ncn(-c3ccc(OC(F)(F)F)cc3)n2)cc1` [Compound 232C], the mortality at 50 µg/cm2 in experiment [1] and in experiment [2] was 50 to 100% throughout.
On to `O=C1CCS/C(=N\N=C\c2ccc(-c3ncn(-c4ccc(OC(F)(F)F)cc4)n3)cc2)N1c1ccccc1OC(F)F` [Compound 233C], for which the mortality at 50 µg/cm2 in experiment [1] and in experiment [2] was 50 to 100% throughout.
For the compound `Cc1cccc(C(C)C)c1N1C(=O)CS/C1=N\N=C\c1ccc(-c2ncn(-c3ccc(OC(F)(F)F)cc3)n2)cc1` [Compound 238C], the mortality at 50 µg/cm2 in experiment [1] and in experiment [2] was 50 to 100% each time.
For `CC1(O)CS/C(=N\c2c(Cl)cccc2C(F)(F)F)N1/N=C/c1ccc(-c2ncn(-c3ccc(OC(F)(F)F)cc3)n2)cc1` (centres unmarked) [Compound 241C, (Z)-2-((2-chloro-6-(trifluoromethyl)phenyl)imino)-4-methyl-3-((E)-(4-(1-(4-(trifluoromethoxy)phenyl)-1H-1,2,4-triazol-3-yl)benzylidene)amino)thiazolidin-4-ol], the mortality at 50 µg/cm2 in experiment [1] and in experiment [2] was 50 to 100% in each case.
